How the values were obtained:
carragenin-induced edema = carragenin-induced edema test (antinflammatory activity); type: in vivo, rats
Procedure: (§1) Preparations of the compound were administered orally and/or parenterally in a suspension in 0.59% carboxymethylcellulose in pH neutral physiological saline.
This effect was evaluated with an experimental model reproducing actue inflammation in rats: the carragenin-induced edema test was used, according to the method of C. A. Winter (G. Pharmac. Exp. Ther., 141, 369 (1963)). Table III reports the compounds tested, their concentrations, administration routes and relative percent edema inhibition.

[1] = tested on: p-phenylquinone-induced writhing; experiment: p-phenylquinone-induced writhing test (analgesic activity); type: in vivo; conditions: an hour after administration
Procedure: as §1
The determination was made an hour after administration of the product. The inhibitory effect on abdominal contractions induced by phenyl-p-quinone was calculated as follows: [formula]
Table IV reports the doses, the administration routes and their effectiveness expressed as % protection.

[2] = tested on: hyperthermia induced by dry purified beer yeast; experiment: antipyretic activity, beer yeast-induced hyperthermia; type: in vivo, Wistar strain male albino rats
Procedure: as §1
This effect was evaluated by inducing hyperthermia in Wistar strain male albino rats with an average weight of 250±10 g, injecting them intraperitoneally with a 10% suspension of dry purified beer yeast (Carlo Erba) in a volume of 10 ml/Kg of body weight, according to the method of S. Wong et al. (J. Pharmac. Exp. Ther., 185 (1), 127 (1973)).

[3] = tested on: platelet aggregation (ADP-induced); experiment: in vitro anti-platelet aggregant activity (Born's method, ADP); type: cell-based, rat; conditions: for inhibition at 1 µg/mL / inhibition at 5 µg/mL / inhibition at 10 µg/mL: Rattus norvegicus, Platelet, ADP 7.08 μmol/l, read-out: Inhibition % (platelet aggregation); for inhibition at 1 µg/mL: 1 γ/ml; for inhibition at 5 µg/mL: 5 γ/ml; for inhibition at 10 µg/mL: 10 γ/ml
Procedure: This activity was studied in vitro following Born's method (G. W. R. Born, Nature, 194, 937 (1962)) and inducing platelet aggregation with ADP. […] For the aggregation test, 0.2 ml of platelet rich plasma was mixed with a NaCl solution (0.9%) to which the test substance was added up to a final volume of 0.6 ml. Incubation was fixed at 3 minutes at 27° C. After aggregation was induced with ADP, the course of the aggregation was monitored continuously with an Elvi 840 Aggregometer (Elvi Logos--Milan). The antiaggregant effects were determined by the difference in the light transmission of the sample with respect to that of the ADP control. The test compound was compared with aspirin, which has known antiplatelet aggregant activity (H. J. Weiss et al., J. Clin. Inv., 47, 2169 (1968); Platelet Aggregation and Drugs, edited by L. Caprino and E. C. Rossi, page 235, Academic Press (London), 1974).
Table VI reports the inhibition of platelet aggregation with various doses of the compounds tested at a constant ADP concentration.

in vivo = conditions: rat, ip
gastric mucosa = experiment: gastric tolerance (ulcerogenic activity); conditions: orally, four consecutive days; for Mean number severity: severity scale 0-5
Procedure: This was studied by testing ulcerogenic activity in male Wistar rats weighing an average of 180 g, using groups of 10 animals each. Three doses of each substance were used, and one group of animals was treated with vehicle only, in a volume of 10 ml/g body weight. Each dose was administered orally for four consecutive days, and the rats were killed on the fifth day and autopsied. The ulcerogenic effect was evaluated on the following scale:
(1) each hemorrhage point >1 mm was evaluated as 1 lesion
(2) the hemorrhage points <1 were counted as follows:
(b) from 1 to 19 2 lesions
(c) from 1 to 29 3 lesions
(2) gastric mucosa irritation
(3) hemorrhage points <1 mm
(4) hemorrhage points from 1 to 3 mm
(5) hemorrhage points >3 mm
This scale was used to calculate the following index of gastric damage: [formula]

## Cc1ccc(C(=O)c2ccc(CC(=O)NCC(=O)Nc3cccc(C)c3C)n2C)cc1 [Compound 1f]
carragenin-induced edema; i.p., 10 mg/kg, 3 h
  Oedema inhibition %: 37.1%
carragenin-induced edema; i.p., 10 mg/kg, 6 h
  Oedema inhibition %: 33.4%
carragenin-induced edema; i.p., 10 mg/kg, 24 h
  Oedema inhibition %: 0.0%
carragenin-induced edema; i.p., 50 mg/kg, 3 h
  Oedema inhibition %: 51.6%
carragenin-induced edema; i.p., 50 mg/kg, 6 h
  Oedema inhibition %: 53.9%
carragenin-induced edema; i.p., 50 mg/kg, 24 h
  Oedema inhibition %: 4.2%
carragenin-induced edema; i.p., 100 mg/kg, 3 h
  Oedema inhibition %: 72.5%
carragenin-induced edema; i.p., 100 mg/kg, 6 h
  Oedema inhibition %: 70.0%
carragenin-induced edema; i.p., 100 mg/kg, 24 h
  Oedema inhibition %: 19.1%
carragenin-induced edema; os, 10 mg/kg, 3 h
  Oedema inhibition %: 32.6%
carragenin-induced edema; os, 10 mg/kg, 6 h
  Oedema inhibition %: 34.1%
carragenin-induced edema; os, 10 mg/kg, 24 h
  Oedema inhibition %: 0.0%
carragenin-induced edema; os, 50 mg/kg, 3 h
  Oedema inhibition %: 49.1%
carragenin-induced edema; os, 50 mg/kg, 6 h
  Oedema inhibition %: 49.0%
carragenin-induced edema; os, 50 mg/kg, 24 h
  Oedema inhibition %: 3.4%
carragenin-induced edema; os, 100 mg/kg, 3 h
  Oedema inhibition %: 69.7%
carragenin-induced edema; os, 100 mg/kg, 6 h
  Oedema inhibition %: 69.0%
carragenin-induced edema; os, 100 mg/kg, 24 h
  Oedema inhibition %: 22.1%
[1]; i.p., 5 mg/kg
  Protection %: 15.3%
[1]; i.p., 10 mg/kg
  Protection %: 47.0%
[1]; i.p., 20 mg/kg
  Protection %: 75.0%
[1]; os, 5 mg/kg
  Protection %: 18.0%
[1]; os, 10 mg/kg
  Protection %: 42.1%
[1]; os, 20 mg/kg
  Protection %: 70.3%
[2]; i.p., 50 mg/kg, 1 h
  Temperature decrease %: 12.1%
[2]; i.p., 50 mg/kg, 2 h
  Temperature decrease %: 25.0%
[2]; i.p., 50 mg/kg, 3 h
  Temperature decrease %: 29.8%
[2]; i.p., 75 mg/kg, 1 h
  Temperature decrease %: 16.3%
[2]; i.p., 75 mg/kg, 2 h
  Temperature decrease %: 30.1%
[2]; i.p., 75 mg/kg, 3 h
  Temperature decrease %: 35.1%
[2]; i.p., 100 mg/kg, 1 h
  Temperature decrease %: 38.7%
[2]; i.p., 100 mg/kg, 2 h
  Temperature decrease %: 43.0%
[2]; i.p., 100 mg/kg, 3 h
  Temperature decrease %: 40.0%
[2]; os, 50 mg/kg, 1 h
  Temperature decrease %: 15.1%
[2]; os, 50 mg/kg, 6 h
  Temperature decrease %: 20.0%
[2]; os, 50 mg/kg, 24 h
  Temperature decrease %: 28.7%
[2]; os, 75 mg/kg, 1 h
  Temperature decrease %: 18.2%
[2]; os, 75 mg/kg, 6 h
  Temperature decrease %: 29.5%
[2]; os, 75 mg/kg, 24 h
  Temperature decrease %: 28.7%
[2]; os, 100 mg/kg, 1 h
  Temperature decrease %: 22.1%
[2]; os, 100 mg/kg, 6 h
  Temperature decrease %: 32.0%
[2]; os, 100 mg/kg, 24 h
  Temperature decrease %: 38.1%
[3]
  inhibition at 1 µg/mL: 22%
  inhibition at 5 µg/mL: 75%
  inhibition at 10 µg/mL: 90%
In vivo
  LD50: 1100 mg/kg
Gastric mucosa; 50 mg/kg
  Mean number lesions: 1
  Mean number severity: 1
Gastric mucosa; 100 mg/kg
  Mean number lesions: 2
  Mean number severity: 3
Gastric mucosa; 200 mg/kg
  Mean number lesions: 3
  Mean number severity: 3

## COc1ccccc1NC(=O)CNC(=O)Cc1ccc(C(=O)c2ccc(C)cc2)n1C [Compound 1d]
carragenin-induced edema; i.p., 10 mg/kg, 3 h
  Oedema inhibition %: 48.7%
carragenin-induced edema; i.p., 10 mg/kg, 6 h
  Oedema inhibition %: 36.5%
carragenin-induced edema; i.p., 10 mg/kg, 24 h
  Oedema inhibition %: 0.0%
carragenin-induced edema; i.p., 50 mg/kg, 3 h
  Oedema inhibition %: 59.2%
carragenin-induced edema; i.p., 50 mg/kg, 6 h
  Oedema inhibition %: 52.0%
carragenin-induced edema; i.p., 50 mg/kg, 24 h
  Oedema inhibition %: 18.9%
carragenin-induced edema; i.p., 100 mg/kg, 3 h
  Oedema inhibition %: 78.6%
carragenin-induced edema; i.p., 100 mg/kg, 6 h
  Oedema inhibition %: 66.3%
carragenin-induced edema; i.p., 100 mg/kg, 24 h
  Oedema inhibition %: 30.5%
carragenin-induced edema; os, 10 mg/kg, 3 h
  Oedema inhibition %: 47.2%
carragenin-induced edema; os, 10 mg/kg, 6 h
  Oedema inhibition %: 40.0%
carragenin-induced edema; os, 10 mg/kg, 24 h
  Oedema inhibition %: 9.0%
carragenin-induced edema; os, 50 mg/kg, 3 h
  Oedema inhibition %: 58.5%
carragenin-induced edema; os, 50 mg/kg, 6 h
  Oedema inhibition %: 54.0%
carragenin-induced edema; os, 50 mg/kg, 24 h
  Oedema inhibition %: 30.0%
carragenin-induced edema; os, 100 mg/kg, 3 h
  Oedema inhibition %: 77.1%
carragenin-induced edema; os, 100 mg/kg, 6 h
  Oedema inhibition %: 66.0%
carragenin-induced edema; os, 100 mg/kg, 24 h
  Oedema inhibition %: 38.0%
carragenin-induced edema; rat, in vivo
  antinflammatory, analgesic and antipyretic activity versus ester analogue (4) (in words): comparable to that of the ester analogue (4)
[1]; i.p., 5 mg/kg
  Protection %: 29.0%
[1]; i.p., 10 mg/kg
  Protection %: 60.1%
[1]; i.p., 20 mg/kg
  Protection %: 73.4%
[1]; os, 5 mg/kg
  Protection %: 22.9%
[1]; os, 10 mg/kg
  Protection %: 54.2%
[1]; os, 20 mg/kg
  Protection %: 70.1%
[2]; i.p., 50 mg/kg, 1 h
  Temperature decrease %: 18.0%
[2]; i.p., 50 mg/kg, 2 h
  Temperature decrease %: 26.0%
[2]; i.p., 50 mg/kg, 3 h
  Temperature decrease %: 39.0%
[2]; i.p., 75 mg/kg, 1 h
  Temperature decrease %: 30.0%
[2]; i.p., 75 mg/kg, 2 h
  Temperature decrease %: 36.1%
[2]; i.p., 75 mg/kg, 3 h
  Temperature decrease %: 56.1%
[2]; i.p., 100 mg/kg, 1 h
  Temperature decrease %: 42.0%
[2]; i.p., 100 mg/kg, 2 h
  Temperature decrease %: 49.0%
[2]; i.p., 100 mg/kg, 3 h
  Temperature decrease %: 48.0%
[2]; os, 50 mg/kg, 1 h
  Temperature decrease %: 16.0%
[2]; os, 50 mg/kg, 6 h
  Temperature decrease %: 22.0%
[2]; os, 50 mg/kg, 24 h
  Temperature decrease %: 30.1%
[2]; os, 75 mg/kg, 1 h
  Temperature decrease %: 18.0%
[2]; os, 75 mg/kg, 6 h
  Temperature decrease %: 28.0%
[2]; os, 75 mg/kg, 24 h
  Temperature decrease %: 48.2%
[2]; os, 100 mg/kg, 1 h
  Temperature decrease %: 29.0%
[2]; os, 100 mg/kg, 6 h
  Temperature decrease %: 32.0%
[2]; os, 100 mg/kg, 24 h
  Temperature decrease %: 50.0%
[3]
  anti-platelet aggregant activity (in words): particularly pronounced anti-platelet aggregant activity
  inhibition at 1 µg/mL: 20%
  inhibition at 5 µg/mL: 70%
  inhibition at 10 µg/mL: 90%
Gastric mucosa; 50 mg/kg
  Index gastric damage: 9
  Index gastric damage, signed figure (untitled; difference from Carrier index 8): +1
  Mean number lesions: 1
  Mean number severity: 1
Gastric mucosa; 100 mg/kg
  Index gastric damage: 11
  Index gastric damage, signed figure (untitled; difference from Carrier index 8): +3
  Mean number lesions: 1
  Mean number severity: 2
Gastric mucosa; 200 mg/kg
  Index gastric damage: 12
  Index gastric damage, signed figure (untitled; difference from Carrier index 8): +4
  Mean number lesions: 2
  Mean number severity: 2

From patent US4568690A, “1-Methyl-5-p-methylbenzoylpyrrole-2-acetamidoacetanilides with antiinflammatory, analgesic, antipyretic and anti-platelet aggregant activity” (priority 1983, dated 1986)
